Where a name gives a salt, the structure may show the parent alone.
How the values were obtained:
4T1 breast cancer cells = experiment: Cell viability by CCK-8 method; format: cell-based, mouse; conditions: 4T1 cells, doxorubicin 0.01-10.00 μg/mL, 48 h
Protocol: [formula] • 5) collecting the nanobowls@Dox-liposomes at each time point by centrifugation (24000 g, 15 min) and determining the particle size and potential by DLS after redispersion. 1.2. […] Incubating the culture plate in a 37° C., 5% CO2 constant temperature cell incubator for 12 h; 2) preparing different nanoparticle structures in a serum-free culture medium with a drug concentration gradient to prepare a culture medium containing different concentrations of liquid medicine, sucking out the old culture medium in the culture plate, and then adding 200 μL of a new culture medium containing the liquid medicine to each well; • 3) placing the 96-well plate containing cells in a 37° C., 5% CO2 constant temperature cell incubator for culture for appropriate time; • 4) diluting CCK-8 liquid with serum-free culture medium by a factor of 10 according to 1:10, sucking out the old culture medium in the culture plate, and adding 100 μL culture medium containing CCK-8 into each well; • 5) incubating the culture plate in a 37° C., 5% CO2 constant temperature cell incubator for 0.5-1 h; • 6) determining the absorbance of each well with a microplate reader at a wavelength of 450 nm. […]

4T1 breast cancer = system: 4T1 breast cancer
Protocol: • 1) 4T1 cell culture solution: DMEM basal medium, 1 penicillin streptomycin double antibody, 10% fetal bovine serum; • 2) 4% paraformaldehyde solution: with PBS (0.01 M) of pH 7.4 as the solvent, weighing 40 g of paraformaldehyde and placing into 800 mL of PBS solution, shaking and dissolving in a constant temperature shaker at 60° C. overnight; after the solid of paraformaldehyde is completely dissolved, stopping heating, balancing to room temperature, and adding PBS again to dilute the volume to 1 L; • 3) 1% sodium pentobarbital anesthetic: weighing 100 mg pentobarbital sodium, adding into 10 mL ultrapure water, and vortexing until it is fully dissolved. II. Experimental Method 1. Establishment of Orthotopic Inoculation Model for 4T1 Breast Cancer 1.1 Preparation of 4T1 Cell Suspension • 1) Taking a T-75 culture flask containing 4T1 cells, using a pipette to suck out the cell culture solution in the culture flask, and adding 5 mL of DPBS to rinse for 1-2 times to remove the residual culture solution; • 2) adding 2 mL of 0.25% trypsin, shaking the culture flask back and forth, so that the trypsin uniformly covers the bottom surface of the culture flask, and incubating in a constant temperature incubator containing 5% CO2 at 37° C. for 3 min; • 3) adding 10 mL serum-free cell culture medium, diluting trypsin and stop digestion; • 4) using a pipette to blow and beat the cell suspension to evenly disperse it to obtain a single cell suspension, taking 5 μL of cell suspension and adding placental blue dye solution with the same volume, and using an Invitrogen life countess cell counter to count the cells of cell suspension; • 5) centrifuging at 4° C. and 800 g for 5 min, discarding the supernatant, adding an appropriate amount of serum-free cell culture medium according to the intracellular concentration calculated previously, gently blowing and beating the cell block with a pipette to fully disperse it to prepare a single cell suspension, and the final concentration of cell suspension is: 1.6×10^7/mL; • 6) dispensing the 4T1 cell suspension into sterile 2 mL centrifuge tubes and storing at 4° C. until use. 1.2 BALB/c Female Mice Inoculated Orthotopically with 4T1 Cells • 1) On the day before inoculation, removing the hair on the right side of the abdomen of the mice to prepare the skin for the next day surgery; • 2) the next day, injecting the skin-prepared mice intraperitoneally with 1% pentobarbital anesthetic 100 μL; • 3)after complete anesthesia, fixing the limbs, wetting the right side of the abdomen with normal saline, and then using a scalpel to make a light incision on the abdomen; • 4) using tweezers to clamp out the 4th mammary fat pad located at the root of right thigh, and injecting 50 μL of 4T1 single cell suspension prepared above; • 5) loosening the tweezers, positioning the fat pad, and then suturing the abdominal wound; • 6) at the end of inoculation, returning the mice to their cages and the front leg of each mouse was taped with a label tape. 2. Animal Grouping and Dosing Regimen • 1) four days after inoculation, tumor volume was determined using vernier calipers: the longest and shortest diameters (L, W) of the tumor were measured every other day, and the tumor volume was calculated according to the following formula:
[formula] • 2) after the tumor volume grew to 80 mm^3, it was evenly divided into the following 5 experimental groups according to the size of tumor volume: • (1) Saline group (Saline) • (2) Blank nanobowls@liposomes group (NB@LP) • (3) Doxorubicin hydrochloride group (Dox) • (4) Common Dox-liposome group (DLP) • (5) Nanobowls@Dox-liposome group (NB@DLP) • 3) On the 8th, 11th and 14th day after inoculation, the corresponding drugs were intravenously injected into the tail vein of each experimental group, and the corresponding drugs were administered to each group at a dose of 4 mg/kg of doxorubicin. 3.

4T1 tumor tissue = experiment: TUNEL and PCNA immunohistochemical staining of tumor tissue of 4T1 tumor-bearing mice; format: in vivo, mouse; conditions: tumor tissue after treatment
Source text: (§1) [formula] • 2) after the tumor volume grew to 80 mm^3, it was evenly divided into the following 5 experimental groups according to the size of tumor volume: • (1) Saline group (Saline) • (2) Blank nanobowls@liposomes group (NB@LP) • (3) Doxorubicin hydrochloride group (Dox) • (4) Common Dox-liposome group (DLP) • (5) Nanobowls@Dox-liposome group (NB@DLP) • 3) On the 8th, 11th and 14th day after inoculation, the corresponding drugs were intravenously injected into the tail vein of each experimental group, and the corresponding drugs were administered to each group at a dose of 4 mg/kg of doxorubicin. 3. Monitoring of Mouse Body Weight and Tumor Volume • 1) determining body weight and tumor length and diameter every 2 days after the first dose of group, calculating tumor volume, and recording and summarizing all results; • 2) using GraphPad Prism 7.0 medical mapping software for data induction, statistical analysis, and making charts. 4. Immunohistochemical Staining of Tissue Sections • 1) after the last intravenous administration, selecting several mice in each experimental group, after sacrifice, dissecting and removing tumor tissues and important organs of mice, and fully immersing in 4% paraformaldehyde solution for fixation; • 2) during fixation, replacing fresh 4% paraformaldehyde solution several times to wash out residual blood. […]

[1] = system: important organs of tumor-bearing mice; conditions: mouse, in vivo
Source text: as §1

COc1cccc2c1C(=O)c1c(O)c3c(c(O)c1C2=O)C[C@@](O)(C(=O)CO)C[C@@H]3O[C@H]1C[C@H](N)[C@H](O)[C@H](C)O1 [Dox, doxorubicin hydrochloride]
effect on cell viability (4T1 breast cancer cells): significantly stronger than that of common Dox-liposomes and nanobowls@Dox-liposomes
tumor volume growth (4T1 breast cancer; 4 mg/kg doxorubicin i.v. tail vein, days 0, 3 and 6): could not achieve the expected treatment of tumor
median survival time (4T1 breast cancer; 4T1 breast cancer mice): 27 days
Median survival (4T1 breast cancer; 4T1 breast cancer mice, 4 mg/kg doxorubicin i.v. x3): 27 days
Prolong duration (4T1 breast cancer; median survival versus saline): 3 days
Prolonged rate (%) (4T1 breast cancer; median survival versus saline control): 12.50%
body weight of mice during administration (4T1 breast cancer; mouse, in vivo): significant decrease
prolongation of median survival time compared with the control group (4T1 breast cancer; versus saline control): 3 days
effect of promoting tumor cell apoptosis (TUNEL) and inhibiting proliferation (PCNA) (4T1 tumor tissue): worst effect
toxicity to the heart (pathological sections) [1]: more toxic to the heart, leading to the lysis and rupture of cardiomyocytes

From patent publication US12551438B2, “Nanobowl-supported drug-loaded liposome, preparation method therefor and application thereof” (priority 2020, dated 2026)
